{"source": "patent US20230357269A1", "about": "(LES LABORATOIRES SERVIER, priority 2020, published 2023)"}
{"target": "human recombinant LRRK2 protein (Homo sapiens (Human), UniProt Q5S007)", "sequence (Q5S007 whole entry)": "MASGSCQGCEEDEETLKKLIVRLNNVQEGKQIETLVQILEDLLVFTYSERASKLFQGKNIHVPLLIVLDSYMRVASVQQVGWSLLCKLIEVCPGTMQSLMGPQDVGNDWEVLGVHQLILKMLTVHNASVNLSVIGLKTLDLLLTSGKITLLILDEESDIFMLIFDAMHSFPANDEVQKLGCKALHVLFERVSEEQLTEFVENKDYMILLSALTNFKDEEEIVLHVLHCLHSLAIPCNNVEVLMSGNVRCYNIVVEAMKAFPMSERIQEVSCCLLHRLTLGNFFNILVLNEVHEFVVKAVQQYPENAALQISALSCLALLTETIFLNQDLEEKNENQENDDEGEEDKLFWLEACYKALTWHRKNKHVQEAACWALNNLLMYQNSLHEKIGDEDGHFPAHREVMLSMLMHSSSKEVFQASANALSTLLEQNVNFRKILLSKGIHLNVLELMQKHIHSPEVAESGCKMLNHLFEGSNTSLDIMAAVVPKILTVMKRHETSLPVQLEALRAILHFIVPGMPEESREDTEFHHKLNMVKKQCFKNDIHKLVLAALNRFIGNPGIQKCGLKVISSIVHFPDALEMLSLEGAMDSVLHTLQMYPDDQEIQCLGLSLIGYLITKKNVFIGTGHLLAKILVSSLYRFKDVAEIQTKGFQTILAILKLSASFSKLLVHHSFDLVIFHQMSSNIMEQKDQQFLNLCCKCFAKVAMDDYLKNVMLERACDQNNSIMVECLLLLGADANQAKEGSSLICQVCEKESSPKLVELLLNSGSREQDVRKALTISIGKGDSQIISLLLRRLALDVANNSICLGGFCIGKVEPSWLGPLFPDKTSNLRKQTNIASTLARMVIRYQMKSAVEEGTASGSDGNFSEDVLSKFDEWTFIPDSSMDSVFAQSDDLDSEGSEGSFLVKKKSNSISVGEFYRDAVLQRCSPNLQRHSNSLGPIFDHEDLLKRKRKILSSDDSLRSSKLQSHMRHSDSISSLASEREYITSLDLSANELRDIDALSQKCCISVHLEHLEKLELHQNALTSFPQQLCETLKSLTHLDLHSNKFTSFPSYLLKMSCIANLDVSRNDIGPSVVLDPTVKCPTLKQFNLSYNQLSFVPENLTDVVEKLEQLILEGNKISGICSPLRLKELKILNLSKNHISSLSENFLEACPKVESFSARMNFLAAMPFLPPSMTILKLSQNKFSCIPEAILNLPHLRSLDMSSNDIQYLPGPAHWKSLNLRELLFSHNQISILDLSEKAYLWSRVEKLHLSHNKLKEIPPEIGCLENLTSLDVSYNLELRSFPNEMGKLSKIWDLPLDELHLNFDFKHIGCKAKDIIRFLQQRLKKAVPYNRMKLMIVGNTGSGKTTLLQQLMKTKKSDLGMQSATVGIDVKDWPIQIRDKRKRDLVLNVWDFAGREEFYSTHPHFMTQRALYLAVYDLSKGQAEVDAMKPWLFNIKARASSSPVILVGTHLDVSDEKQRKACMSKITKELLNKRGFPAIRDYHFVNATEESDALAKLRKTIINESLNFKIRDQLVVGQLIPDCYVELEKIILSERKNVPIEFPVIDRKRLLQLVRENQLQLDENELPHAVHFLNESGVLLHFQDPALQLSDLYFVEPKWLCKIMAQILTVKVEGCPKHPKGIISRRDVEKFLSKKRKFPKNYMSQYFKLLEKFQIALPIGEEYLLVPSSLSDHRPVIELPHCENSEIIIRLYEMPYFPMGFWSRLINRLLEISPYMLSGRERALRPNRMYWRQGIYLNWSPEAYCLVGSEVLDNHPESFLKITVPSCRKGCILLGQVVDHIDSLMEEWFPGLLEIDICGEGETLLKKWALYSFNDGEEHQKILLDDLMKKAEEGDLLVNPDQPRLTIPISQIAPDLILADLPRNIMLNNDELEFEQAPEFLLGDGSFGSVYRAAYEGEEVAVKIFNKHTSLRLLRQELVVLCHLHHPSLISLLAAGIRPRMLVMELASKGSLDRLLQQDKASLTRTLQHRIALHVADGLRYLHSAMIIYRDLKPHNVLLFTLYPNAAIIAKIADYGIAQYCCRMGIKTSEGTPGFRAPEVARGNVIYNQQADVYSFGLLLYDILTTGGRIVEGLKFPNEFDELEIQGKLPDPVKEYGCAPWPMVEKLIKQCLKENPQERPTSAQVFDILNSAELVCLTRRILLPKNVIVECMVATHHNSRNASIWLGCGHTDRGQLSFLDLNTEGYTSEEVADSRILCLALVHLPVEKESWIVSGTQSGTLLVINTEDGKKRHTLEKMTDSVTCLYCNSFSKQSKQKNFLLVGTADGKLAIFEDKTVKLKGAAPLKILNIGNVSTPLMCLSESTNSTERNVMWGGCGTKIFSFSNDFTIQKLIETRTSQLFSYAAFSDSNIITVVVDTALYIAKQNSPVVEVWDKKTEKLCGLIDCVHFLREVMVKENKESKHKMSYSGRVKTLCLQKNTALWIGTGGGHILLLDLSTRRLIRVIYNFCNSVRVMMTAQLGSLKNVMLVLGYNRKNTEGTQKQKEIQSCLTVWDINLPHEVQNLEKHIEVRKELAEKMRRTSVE", "assay": "LRRK2 Kinase Activity Assay (ADP-Glo)", "format": "biochemical", "conditions": "LRRK2 wt; LRRKtide peptide and ATP substrates; 1h-incubation at 37° C.", "summary_of_the_method": "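Recombinant human LRRK2 acted on LRRKtide peptide and ATP for 1 h at 37 °C. ADP formed was detected by ADP-Glo luminescence (ATP depletion, then ADP-to-ATP conversion and luciferase). IC50s came from curve fits over 10 concentrations (N=2).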", "units": {"IC50": "nM"}}
{"smiles": "C[C@@H]1CCNC(=O)OCc2nccc(n2)-c2n[nH]c3ccc(cc23)O1", "note": "[Example 105, (13R)-13-methyl-8,14-dioxa-5,10,19,20,23-pentaazatetracyclo[13.5.2.1^2,6.0^18,21]tricosa-1(20),2,4,6(23),15,17,21-heptaen-9-one]", "IC50": "< 10"}
{"smiles": "C[C@@H]1CCNC(=O)O[C@H](C)c2cc(F)cc(c2)-c2n[nH]c3ccc(cc23)O1", "note": "[Example 106, (7R,13R)-4-fluoro-7,13-dimethyl-8,14-dioxa-10,19,20-triazatetracyclo[13.5.2.1^2,6.0^18,21]tricosa-1(20),2,4,6(23),15,17,21-heptaen-9-one]", "IC50": "< 10"}
{"smiles": "CC1OC(=O)NCCCOc2ccc3[nH]nc(c3c2)-c2cncc1c2", "note": "(centres unmarked) [Example 107, 7-methyl-8,14-dioxa-4,10,19,20-tetraazatetracyclo[13.5.2.1^2,6.0^18,21]tricosa-1(20),2,4,6(23),15,17,21-heptaen-9-one]", "IC50": "< 10"}
{"smiles": "CC1COC(=O)NCCCOc2ccc3[nH]nc(c3c2)-c2cnn1c2", "note": "(centres unmarked) [Example 110, 6-methyl-8,14-dioxa-4,5,10,19,20-pentaazatetracyclo[13.5.2.1^2,5.0^18,21]tricosa-1(20),2(23),3,15,17,21-hexaen-9-one]", "IC50": "< 10"}
{"smiles": "CC1OC(=O)NCCCOc2ccc3[nH]nc(c3c2)-c2cccc1n2", "note": "(centres unmarked) [Example 111, 7-methyl-8,14-dioxa-10,19,20,23-tetraazatetracyclo[13.5.2.1^2,6.0^18,21]tricosa-1(20),2,4,6(23),15,17,21-heptaen-9-one]", "IC50": "10 to 100"}
{"smiles": "CC(C)C1COC(=O)NCCCOc2ccc3[nH]nc(c3c2)-c2cnn1c2", "note": "(centres unmarked) [Example 112, 6-(propan-2-yl)-8,14-dioxa-4,5,10,19,20-pentaazatetracyclo[13.5.2.1^2,5.0^18,21]tricosa-1(20),2(23),3,15(22),16,18(21)-hexaen-9-one]", "IC50": "10 to 100"}
{"smiles": "CC1Cn2cc(cn2)-c2n[nH]c3ccc(cc23)O[C@H](C)CCNC(=O)O1", "note": "(stereo partly drawn) [Example 113, (13R)-7,13-dimethyl-8,14-dioxa-4,5,10,19,20-pentaazatetracyclo[13.5.2.1^2,5.0^18,21]tricosa-1(20),2(23),3,15(22),16,18(21)-hexaen-9-one]", "IC50": "< 10"}
{"smiles": "C[C@@H]1CCNC(=O)OCc2cccc(n2)-c2n[nH]c3ccc(cc23)O1", "note": "[Example 114, (13R)-13-methyl-8,14-dioxa-10,19,20,23-tetraazatetracyclo[13.5.2.1^2,6.0^18,21]tricosa-1(20),2,4,6(23),15,17,21-heptaen-9-one]", "IC50": "< 10"}
{"smiles": "C[C@@H]1CCNC(=O)OCc2cc(ccn2)-c2n[nH]c3ccc(cc23)O1", "note": "[Example 117, (13R)-13-methyl-8,14-dioxa-5,10,19,20-tetraazatetracyclo[13.5.2.1^2,6.0^18,21]tricosa-1(20),2,4,6(23),15,17,21-heptaen-9-one]", "IC50": "< 10"}
{"smiles": "O=C1NCCCOc2ccc3[nH]nc(c3c2)-c2cnn(c2)C(C2CCOCC2)CO1", "note": "(centres unmarked) [Example 118, 6-(oxan-4-yl)-8,14-dioxa-4,5,10,19,20-pentaazatetracyclo[13.5.2.1^2,5.0^18,21]tricosa-1(20),2(23),3,15,17,21-hexaen-9-one]", "IC50": "100 to 1000"}
{"smiles": "CCC1CC2=NN1CCOC(=O)NCCCOc1ccc3[nH]nc2c3c1", "note": "(centres unmarked) [Example 119, 4-ethyl-8,14-dioxa-5,10,19,20,23-pentaazatetracyclo[13.5.2.1^2,5.0^18,21]tricosa-1(20),2(23),15,17,21-pentaen-9-one]", "IC50": "10 to 100"}
{"smiles": "C[C@@H]1CCNC(=O)OCc2cccc(c2F)-c2n[nH]c3ccc(cc23)O1", "note": "[Example 120, (13R)-23-fluoro-13-methyl-8,14-dioxa-10,19,20-triazatetracyclo[13.5.2.1^2,6.0^18,21]tricosa-1(20),2,4,6(23),15,17,21-heptaen-9-one]", "IC50": "100 to 1000"}
{"smiles": "O=C1NCCOc2ccc3[nH]nc(c3c2)-c2cnn(c2)CCCO1", "note": "[Example 121, 9,14-dioxa-4,5,11,19,20-pentaazatetracyclo[13.5.2.1^2,5.0^18,21]tricosa-1(20),2(23),3,15,17,21-hexaen-10-one]", "IC50": "100 to 1000"}
{"smiles": "CCc1cc2nn1CCOC(=O)NCCCOc1ccc3[nH]nc-2c3c1", "note": "[Example 122, 4-ethyl-8,14-dioxa-5,10,19,20,23-pentaazatetracyclo[13.5.2.1^2,5.0^18,21]tricosa-1(20),2(23),3,15,17,21-hexaen-9-one]", "IC50": "< 10"}
{"smiles": "O=C1NCCCOc2ccc3[nH]nc(c3c2)-c2cc(no2)CCCO1", "note": "[Example 123, 3,9,15-trioxa-4,11,20,21-tetraazatetracyclo[14.5.2.1^2,5.0^19,22]tetracosa-1(21),2(24),4,16,18,22-hexaen-10-one]", "IC50": "< 10"}
{"smiles": "C[C@@H]1CCNC(=O)OCc2cncc(c2)-c2n[nH]c3cc(F)c(cc23)O1", "note": "[Example 124, (13R)-16-fluoro-13-methyl-8,14-dioxa-4,10,19,20-tetraazatetracyclo[13.5.2.1^2,6.0^18,21]tricosa-1(20),2,4,6(23),15,17,21-heptaen-9-one]", "IC50": "< 10"}
{"smiles": "C[C@@H]1CCNC(=O)OCc2cc(Cl)cc(n2)-c2n[nH]c3ccc(cc23)O1", "note": "[Example 125, (13R)-4-chloro-13-methyl-8,14-dioxa-10,19,20,23-tetraazatetracyclo[13.5.2.1^2,6.0^18,21]tricosa-1(20),2(23),3,5,15(22),16,18(21)-heptaen-9-one]", "IC50": "< 10"}
{"smiles": "O=C1NCCCOc2ccc3[nH]nc(c3c2)-n2cnc(c2)CCO1", "note": "[Example 126, 8,14-dioxa-2,4,10,19,20-pentaazatetracyclo[13.5.2.1^2,5.0^18,21]tricosa-1(20),3,5(23),15(22),16,18(21)-hexaen-9-one]", "IC50": "10 to 100"}
{"smiles": "COc1cc2nc(c1)-c1n[nH]c3ccc(cc13)O[C@H](C)CCNC(=O)OC2", "note": "[Example 127, (13R)-4-methoxy-13-methyl-8,14-dioxa-10,19,20,23-tetraazatetracyclo[13.5.2.1^2,6.0^18,21]tricosa-1(20),2,4,6(23),15,17,21-heptaen-9-one]", "IC50": "< 10"}
{"smiles": "C[C@@H]1CCNC(=O)OCc2cc(ccc2C#N)-c2n[nH]c3ccc(cc23)O1", "note": "[Example 128, (13R)-13-methyl-9-oxo-8,14-dioxa-10,19,20-triazatetracyclo[13.5.2.1^2,6. 0^18,21]tricosa-1(20),2,4,6(23),15,17,21-heptaene-5-carbonitrile]", "IC50": "< 10"}
{"smiles": "C[C@@H]1CCNC(=O)OCc2nc(cc(N3CCCC3)n2)-c2n[nH]c3ccc(cc23)O1", "note": "[Example 129, (13R)-13-methyl-4-(pyrrolidin-1-yl)-8,14-dioxa-5,10,19,20,23-pentaaza tetracyclo[13.5.2.1^2,6.0^18,21]tricosa-1(20),2,4,6(23),15,17,21-heptaen-9-one]", "IC50": "< 10"}
{"smiles": "C[C@@H]1CCNC(=O)OCc2cccc(c2)-c2n[nH]c3cc(F)c(cc23)O1", "note": "[Example 132, (13R)-16-fluoro-13-methyl-8,14-dioxa-10,19,20-triazatetracyclo[13.5.2.1^2,6.0^18,21]tricosa-1(20),2,4,6(23),15,17,21-heptaen-9-one]", "IC50": "< 10"}
{"smiles": "C[C@@H]1CCNC(=O)OCc2cncc(n2)-c2n[nH]c3ccc(cc23)O1", "note": "[Example 133, (13R)-13-methyl-8,14-dioxa-4,10,19,20,23-pentaazatetracyclo[13.5.2.1^2,6.0^18,21]tricosa-1(20),2,4,6(23),15,17,21-heptaen-9-one]", "IC50": "< 10"}
{"smiles": "O=C1NCCCOc2ccc3[nH]nc(c3c2)-c2csc(n2)CCO1", "note": "[Example 134, 8,14-dioxa-4-thia-10,19,20,23-tetraazatetracyclo[13.5.2.1^2,5.0^18,21]tricosa-1(20),2,5(23),15,17,21-hexaen-9-one]", "IC50": "< 10"}
{"smiles": "O=C1NCCCOc2ccc3[nH]nc(c3c2)-c2nc(cs2)CCO1", "note": "[Example 135, 8,14-dioxa-3-thia-10,19,20,23-tetraazatetracyclo[13.5.2.1^2,5.0^18,21]tricosa-1(20),2(23),4,15,17,21-hexaen-9-one]", "IC50": "< 10"}
{"smiles": "C[C@@H]1CCNC(=O)O[C@H](C)c2cccc(n2)-c2n[nH]c3ccc(cc23)O1", "note": "[Example 136, (7R,13R)-7,13-dimethyl-8,14-dioxa-10,19,20,23-tetraazatetracyclo[13.5.2.1^2,6.0^18,21]tricosa-1(20),2,4,6(23),15,17,21-heptaen-9-one]", "IC50": "< 10"}
{"smiles": "CO[C@@H]1CCN(c2cc3nc(n2)COC(=O)NCC[C@@H](C)Oc2ccc4[nH]nc-3c4c2)C1", "note": "[Example 137, (13R)-4-[(3R)-3-methoxypyrrolidin-1-yl]-13-methyl-8,14-dioxa-5,10,19,20,23-pentaazatetracyclo[13.5.2.1^2,6.0^18,21]tricosa-1(20),2,4,6(23),15,17,21-heptaen-9-one]", "IC50": "< 10"}
{"smiles": "C[C@@H]1CCNC(=O)OCc2cccc(c2)-c2n[nH]c3cc(Cl)c(cc23)O1", "note": "[Example 138, (13R)-16-chloro-13-methyl-8,14-dioxa-10,19,20-triazatetracyclo[13.5.2.1^2,6.0^18,21]tricosa-1(20),2,4,6(23),15,17,21-heptaen-9-one]", "IC50": "< 10"}
{"smiles": "Cc1cc2[nH]nc3c2cc1O[C@H](C)CCNC(=O)OCc1cccc-3c1", "note": "[Example 139, (13R)-13,16-dimethyl-8,14-dioxa-10,19,20-triazatetracyclo[13.5.2.1^2,6.0^18,21]tricosa-1(20),2,4,6(23),15,17,21-heptaen-9-one]", "IC50": "< 10"}
{"smiles": "C[C@@H]1CCNC(=O)OCc2ccnc(n2)-c2n[nH]c3ccc(cc23)O1", "note": "[Example 140, (13R)-13-methyl-8,14-dioxa-3,10,19,20,23-pentaazatetracyclo[13.5.2.1^2,6.0^18,21]tricosa-1(20),2,4,6(23),15,17,21-heptaen-9-one]", "IC50": "10 to 100"}
{"smiles": "O=C1NCCCNc2ccc3[nH]nc(c3c2)-c2cccc(c2)CO1", "note": "[Example 141, 8-oxa-10,14,19,20-tetraazatetracyclo[13.5.2.1^2,6.0^18,21]tricosa-1(20),2(23), 3,5,15(22),16,18(21)-heptaen-9-one]", "IC50": "100 to 1000"}
{"smiles": "O=C1NCCCCc2ccc3[nH]nc(c3c2)-c2cccc(c2)CO1", "note": "[Example 142, 8-oxa-10,19,20-triazatetracyclo[13.5.2.1^2,6.0^18,21]tricosa-1(20),2(23),3,5, 15(22),16,18(21)-heptaen-9-one]", "IC50": "< 10"}
